Drawing on patent US5514704A, “Benzothiophenes to inhibit leukotrienes” (Eli Lilly and Company, priority 1995, dated 1996), this text covers CC50 and IC50 for six compounds.

Each structure is given as a SMILES string.

Data set [1] is described as follows: MCII mast cell toxicity assay (XTT). The format is cell-based. The conditions noted are these: mouse, mcii mast cells, 4-12 hours, 37° C., read-out: MCII Mast Cell Toxicity (IC50). The text has this:
This toxicity assay is run in parallel with the MCII mast cell LTC4 assay and serves as an indicator of compound effects on the viability and metabolic activity of the MCII cells. This "toxicity" assay is based on the ability of dehydrogenase enzymes present in viable metabolically active cells to bioreduce the tetrazolium salt XTT yielding a colored, water soluble formazan product. (see, Roehm et al.) "An improved colorimetric assay for cell proliferation and viability utilzing the tetrazolium salt XTT. J. Immunol. Methods […] (1991).
A duplicate polystyrene 96-well tissue culture plate (Costar) is set up with sensitized MCII cells, EM95 ascites, media and dilutions of the test compound as described above. The complete media is supplemented with concanavalin A induced culture supernatants from the mouse helper T cell clone D10.G4, as a source of mast cell growth factors.
Wells of the toxicity assay plate are pulsed with 25 μl XTT (Sigma) plus phenazine methosulfate (Aldrich) giving a final concentration of 0.2 mg/ml XTT and 25 μM phenazine methosulfate. The plates are incubated at 37° C. in 10% CO2 for 4-12 hours and then production of the XTT formazan product determined by measuring the optical density of the wells at a wavelength of 450 nm. The positive control on each plate is stimulated MCII cells with dimethyl sulfoxide vehicle alone and the negative control is the same reaction mixture without cells. The background negative control value is subtracted from experimental and positive control values and the data are reported as percent of positive control.
(§1) (The results are in IC50 μM). (Compound A is a compound of formula II where R6 and R7 are hydrogen, and R5 is phenyl. Compound B is a compound of formula I where R1, R2 and R3 are hydrogen. Compound C is a compound of formula II wherein R6 and R7 are methyl, and R5 is p-methoxyphenyl. Compound D is a compound of formula II wherein R1 and R2 are hydrogen, and R5 is p-hydroxyphenyl.)

The target in data set [2] is T1, cPLA2 (Homo sapiens, UniProt P47712).
T1 sequence (P47712 1-749): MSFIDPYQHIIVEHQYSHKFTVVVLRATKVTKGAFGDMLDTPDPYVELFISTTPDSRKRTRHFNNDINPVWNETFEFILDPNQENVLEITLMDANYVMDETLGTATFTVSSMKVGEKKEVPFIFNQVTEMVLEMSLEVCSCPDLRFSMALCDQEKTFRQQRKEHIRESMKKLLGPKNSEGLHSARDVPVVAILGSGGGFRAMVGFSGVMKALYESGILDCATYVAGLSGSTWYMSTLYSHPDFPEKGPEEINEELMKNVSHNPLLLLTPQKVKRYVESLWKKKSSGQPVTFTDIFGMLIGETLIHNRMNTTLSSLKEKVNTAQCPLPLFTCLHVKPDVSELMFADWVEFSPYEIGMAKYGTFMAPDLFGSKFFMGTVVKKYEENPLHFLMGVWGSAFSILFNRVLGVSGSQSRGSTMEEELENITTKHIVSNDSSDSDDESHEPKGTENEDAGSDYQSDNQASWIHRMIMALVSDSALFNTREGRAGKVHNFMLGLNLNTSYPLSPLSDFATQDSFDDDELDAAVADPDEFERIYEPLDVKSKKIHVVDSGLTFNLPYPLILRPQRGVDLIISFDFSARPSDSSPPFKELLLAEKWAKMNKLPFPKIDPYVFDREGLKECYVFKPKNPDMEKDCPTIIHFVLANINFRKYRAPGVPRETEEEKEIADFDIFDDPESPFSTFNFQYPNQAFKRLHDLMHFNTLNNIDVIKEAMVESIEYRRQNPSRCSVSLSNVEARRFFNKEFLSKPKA
The data set is described as follows: cPLA2 Enzymatic Activity Assay, 14C-PC/DG liposome substrate. It is filed as biochemical. As to the method: (§2) The substrate, sonicated liposomes containing 1-palmitoyl-2 ^14 C!arachidonoyl-sn-glycerol-3-phosphocholine ( ^14 C!PC, 55 mCi/mmol from NEN Research Products) and sn-1,2-dioleoylglycerol (DG, Avanti Polar Lipids, Birmingham, Ala.) at a molar ratio of 2:1, are prepared as follows. ^14 C!PC (20 nmol, 1×10^6 dpm, 50 uCi/ml in toluene/ethanol) and DG (10 nmol, 100 ug/ml in chloroform) are dried under nitrogen. The lipids are dispersed in 1 ml of 150 mM NaC1, 50 mM Hepes, pH 7.5 (assay buffer) by sonication at 4° C., with Microson probe-sonicator (Heat Systems Ultrasonics) for 4×15 seconds, with 45 second intervals. Bovine serum albumin (essentially fatty acid free, from a 100 mg/ml stock in water, Sigma) is added to a final concentration of 4 mg/ml. Samples to be assayed for cPLA2 activity are incubated with 50 ul liposomes (0.5 nmol ^14 C!PC, 50,000 dpm containing 0.25 nmol of DG) in a total volume of 0.2 ml of assay buffer containing 1 mM CaCl2 and 1 mM 2-ME. Incubations are carried out at 37° C. for 15 minutes and terminated by adding 2 ml of Dole's reagent (2-propanol/heptane/0.5M sulfuric acid, 40:10:1 containing 10 ug/ml of stearic acid). After mixing, 1.2 ml of heptane and 1 ml of water are added. The mixtures are briefly vortexed and the upper phase transferred to tubes containing 2 ml of heptane and 150 mg of Bio-Sil (Bio-Rad Laboratories) activated at 130° C. before use. The tubes are thoroughly vortexed and centrifuged (1000×g for 5 minutes). The supernatants are decanted into scintillation vials. After addition of 10 ml of a liquid scintillation cocktail (Ready Protein+, Beckman) radioactivity is counted using a Beckman liquid scintillation counter Model LS 7000. High radioactive counts correlate with enzymatic activity. The chromogenic cPLA2 enzyme assay used is analogous to Reynolds et al., Analytical Biochemistry, 217, 25-32 (1194).
as §1

The target of another data set is T2, 5-lipoxygenase (Homo sapiens, UniProt P09917).
T2 construct: The resultant supernatant containing the cytosolic 5-lipoxygenase activity is stored frozen; from tissue; host or cells: peripheral blood neutrophils, 20,000×g supernatant of sonicate
T2 sequence (P09917 1-674): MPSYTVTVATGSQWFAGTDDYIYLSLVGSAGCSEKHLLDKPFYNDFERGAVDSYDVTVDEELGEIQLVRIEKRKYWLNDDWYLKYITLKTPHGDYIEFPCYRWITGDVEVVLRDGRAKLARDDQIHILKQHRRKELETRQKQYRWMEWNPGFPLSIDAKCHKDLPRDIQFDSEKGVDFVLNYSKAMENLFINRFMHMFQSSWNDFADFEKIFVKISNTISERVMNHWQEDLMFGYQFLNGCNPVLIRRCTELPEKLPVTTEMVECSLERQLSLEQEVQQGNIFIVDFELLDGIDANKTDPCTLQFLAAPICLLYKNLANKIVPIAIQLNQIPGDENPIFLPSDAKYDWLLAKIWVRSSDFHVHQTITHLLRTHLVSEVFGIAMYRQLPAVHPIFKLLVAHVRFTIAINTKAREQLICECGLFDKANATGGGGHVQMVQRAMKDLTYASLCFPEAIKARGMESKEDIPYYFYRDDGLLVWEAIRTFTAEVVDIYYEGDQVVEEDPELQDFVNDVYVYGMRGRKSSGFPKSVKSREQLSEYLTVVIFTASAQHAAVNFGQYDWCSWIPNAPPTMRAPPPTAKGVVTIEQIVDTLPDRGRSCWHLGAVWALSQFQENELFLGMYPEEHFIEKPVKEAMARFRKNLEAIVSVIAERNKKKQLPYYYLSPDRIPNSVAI
The experiment in a line: 5-Lipoxygenase (5-LPO) Assay: inhibition of leukotriene B4 formation by human neutrophil 20,000×g supernatant. The format is biochemical.

Data set [3] deals with thromboxane B2 (TxB2) production, human plasma-depleted blood. The data set is described as follows: Inhibition of TxB2 production by plasma-depleted blood. The settings on record: read-out: Plasma DPLTD Blood TxB2 (IC50). The format is cell-based. As to the method: Compounds are evaluated for their ability to inhibit production of leukotriene B4 (LTB4) and thromboxane B2 (TxB2) upon stimulation of human plasma-depleted blood with formyl-methionyl-leucyl-phenylalanine (FMLP) and thrombin. LTB4 is produced by neutrophils and TxB2 by platelets stimulated at their respective receptors with FMLP and thrombin. The assay is carried out in 1 ml deep well polypropylene 96-well plates (Beckman). For the tests ten ml of blood is collected in EDTA at a final concentration of 1.5 mg/ml. Then, 40 ml glucose phosphate buffer containing 0.1% gelatin is added and the suspension centrifuged at 900 g for 10 minutes at room temperature. The supernatant is discarded and the cells washed once with 50 ml buffer before resuspending them in 50 ml Krebs-Ringers-Henseleit Buffer containing 0.1% gelatin, 1 mM CaCl2, 1.1 mM MgCl2 (KRH buffer). Working solutions of test compounds are made by dissolving the material in DMSO at 10 mM and diluting with appropriate amounts of KRH buffer. An agonist solution is made containing 1 μM FMLP (sigma) and 10 units/ml of thrombin in KRH buffer (Enzyme Research Labs). […] The amount of LTB4 and TxB2 produced is determined by the use of a competitive enzyme immunoassay using commercial reagents from Cayman Chemical. […]

For data set [4], the target named is T1, cPLA2. The experiment in a line: cPLA2 enzyme assay, chromogenic. The format is biochemical. As to the method: as §2, with “The mixtures are briefly vortexed and the upper phase transferred to tubes containing 2 ml of heptane and 150 mg of Bio-Sil (Bio-Rad Laboratories) activated at 130° C. before use. The tubes are thoroughly vortexed and centrifuged (1000×g for 5 minutes). The supernatants are decanted into scintillation vials.” left out, “High radioactive counts correlate with enzymatic activity. The chromogenic cPLA2 enzyme assay used is analogous to Reynolds et al., Analytical Biochemistry, 217, 25-32 (1194).” left out

Protocol for 5-lipoxygenase: To determine the effect of compounds on 5-lipoxygenase activity, peripheral blood neutrophils are separated by density centrifugation as described (Marder et al., Prostaglandins Leukot. and Essent. Fatty Acids 46, 265-270, 1992) and the cytosolic 5-lipoxygenase is prepared from isolated neutrophils according to a modification of Carter et al., (J. Pharmacolo Exp. Thero 256, 929-937 (1991)). Briefly, neutrophils are washed twice in buffer (in millimolar: PIPES, 10; BES, 10; and EDTA, 1; pH 6.8) and diluted to 2.5×10^7 cells/ml. Cells are disrupted with sonication and the cytosolic fraction obtained by centrifugation at 20,000×g for 20 min. at 4° C. The resultant supernatant containing the cytosolic 5-lipoxygenase activity is stored frozen at -70° C. prior to use. Compounds are evaluated for 5-lipoxygenase inhibitory activity. Varying concentration of compounds in 200 ml aliquots containing 50 ml of human 20,000×g supernatant in assay buffer (in millimolar: PIPES, 10; BES, 10; EDTA, 1; NaCl, 100; ATP, 1.56; and CaCl2, 2.5; pH 6.8) containing 3.0 mM AA are used. The reaction proceeds for 5 minutes at 37° C. and is terminated upon the addition of 50 ml EDTA (250 mM). The percent inhibition of leukotriene B4 is determined for each concentration of test compound as compared to vehicle (containing no compound) control. The concentration representing 50% inhibition (IC50) is determined by standard mathematical techniques. Leukotriene B4 is determined by EIA. EIA reagents were purchased from Caymen Chemical Co. (Ann Arbor, Mich.) and used according to the assay procedures as outlined therein.

With `O=C(c1ccccc1)c1c(-c2ccc(O)cc2)sc2cc(O)ccc12` [Compound A], the CC50 in data set [1] was found to be 0.3 µM. The IC50 at cPLA2 [2] (14C-PC/DG liposomes, 37° C., 15 min, pH 7.5, read-out: C-PLA2 Enzyme, C14PC/DA6 (IC50)) stood at 7.3 ± 0.5 µM.

As for `Oc1ccc(-c2cc3ccc(O)cc3s2)cc1` [Compound B], the IC50 at 5-lipoxygenase was 0.2 ± 0.007 µM; on cPLA2 [2], 7 ± 0.8 µM. In addition, the CC50 in data set [1] was under 10 µM.

With `O=C(c1ccc(O)cc1)c1c(-c2ccc(O)cc2)sc2cc(O)ccc12` [Compound D], the IC50 in data set [3] is over 9.8 µM.

As for `O=C(c1ccc(-c2ccccc2)cc1)c1c(-c2ccc(O)cc2)sc2cc(O)ccc12` [Example 1, 6-hydroxyphenyl-2-(p-hydroxyphenyl)-(benzo(B)thien-3-yl)(p-phenyl)phenyl methanone], in data set [1], the CC50 was over 10 µM. Also, the results for the IC50 on cPLA2 [4] and against cPLA2 [2] were 146 µM and under 1.2 µM, respectively.

`O=C(c1cccc2ccccc12)c1c(-c2ccc(O)cc2)sc2cc(O)ccc12` [Example 2, 6-hydroxyphenyl-2-(p-hydroxyphenyl)-(benzo(B)thien-3-yl)(α-napthyl)methanone]: the values for the IC50 at 5-lipoxygenase and on cPLA2 [2] were 1.7 ± 0.9 µM and 4.8 ± 1.6 µM, respectively. Moreover, the CC50 in data set [1] was over 10 µM.

Take `O=C(c1ccc2ccccc2c1)c1c(-c2ccc(O)cc2)sc2cc(O)ccc12` [Example 3, 6-hydroxyphenyl-2-(p-hydroxyphenyl)-(benzo(B)thien-3-yl)(β-napthyl)methanone]: the IC50 is 1 ± 0.5 µM against 5-lipoxygenase, 122 µM against cPLA2 [4] and 2.3 ± 0.6 µM against cPLA2 [2]. The CC50 in data set [1] is over 10 µM.
